≈ marks a conversion by molar mass, not a printed value.
What was measured:
[1] = tested on: L1210 murine leukemia cells; experiment: evaluation of cytotoxic activity, method (a); format: cell-based; conditions: Mus musculus, 48 h at 37° C., 5% CO2, dose causing 50% inhibition of cell growth relative to untreated controls, 0.5% DMSO
Procedure: As an example, the activity of (E)-9-(2-methoxycarbonyl-ethenyl) camptothecin (internal code FCE 28681) and 9-(2-methoxycarbonyl-ethyl) camptothecin (internal code FCE 29559) were tested according to the following method (a).
The compounds were dissolved in dimethylsulfoxide (DMSO) at a final concentration of 0.5%.
Method (a): evaluation of cytotoxic activity
L1210 murine leukemia cells were grown in vitro as a floated cells in RPMI 1640 medium supplemented with 10% fetal calf serum, 1% L-glutamine 200 mM, 1% of B-mercaptoethanol 1 mM, 100 UI/ml penicillin and 100 μg streptomycin. For assaying the cytotoxic activity, exponentially growing cells were seeded at the concentration of 5×10^4 cells/ml and exposed to graded doses of the compounds under evaluation for 48 h at 37° C. in an humidified atmosphere of 5% CO2. The number of surviving cells was determined with a Coulter Counter; results are expressed as IC50 (dose causing 50% inhibition of cell growth in treated cultures relative to untreated controls after 48 h treatment) in this assay, (E)-9-(2-methoxycarbonyl-ethenyl) camptothecin (internal code FCE 28681) and 9-(2-methoxycarbonyl-ethyl) camptothecin (internal code FCE 29559) were tested and the obtained results are reported on Table 1 below.

human albumin = conditions: biologically relevant levels of human albumin; cited from earlier work
[2] = human plasma, 2 hours after drug addition; cited from earlier work
cancer cells = conditions: both in vitro and in vivo; cited from earlier work
Topoisomerase I = conditions: cited from earlier work

## CC[C@@]1(O)C(=O)OCc2c1cc1n(c2=O)Cc2cc3c(/C=C/C(=O)OC)cccc3nc2-1 [FCE 28681, (E)-9-(2-methoxycarbonyl-ethenyl)camptothecin]
[1]
  IC50: 3.3 ± 1.8 ng/mL (≈ 7.63 nM)

## CC[C@@]1(O)C(=O)OCc2c1cc1n(c2=O)Cc2cc3c(CCC(=O)OC)cccc3nc2-1 [FCE 29559, 9-(2-methoxycarbonyl-ethyl)camptothecin]
[1]
  IC50: 2.7 ± 0.5 ng/mL (≈ 6.21 nM)

## CC[C@@]1(O)C(=O)OCc2c1cc1n(c2=O)Cc2cc3ccccc3nc2-1 [camptothecin]
Human albumin
  half-life of the biologically active form: about 12 min.
[2]
  percentage of drug converted to camptothecin carboxylate: greater than 99%
Cancer cells
  anticancer activity of the lactone versus the carboxylate form: significantly greater for the lactone versus the carboxylate form
Topoisomerase I
  antitumor activity by inhibition of Topoisomerase I: potent antitumor activity
